Earlier results as cited in patent US10112976B2, “Process for the production of D-arginyl-2,6-dimethyl-L-tyrosyl-L-lysyl-L-phenylalaninamide” (Flamma S.P.A., priority 2014, dated 2018).
Non-standard residues stand in square brackets, D forms with d. Residues, ends and D or L forms follow the SMILES beside them. Dmt = Cc1cc(O)cc(C)c1C[C@H](N)C(=O)O

How the values were obtained:
[1] = system: SH—SY5Y neuronal cell line; conditions: <1 nM; SH—SY5Y cells
mu-opioid receptor = mu-opioid receptor (Homo sapiens, UniProt P35372); conditions: as stated for WO 2013/086020, WO 2004/070054, WO 2005/072295
mu-opioid receptor, sequence (P35372 whole entry): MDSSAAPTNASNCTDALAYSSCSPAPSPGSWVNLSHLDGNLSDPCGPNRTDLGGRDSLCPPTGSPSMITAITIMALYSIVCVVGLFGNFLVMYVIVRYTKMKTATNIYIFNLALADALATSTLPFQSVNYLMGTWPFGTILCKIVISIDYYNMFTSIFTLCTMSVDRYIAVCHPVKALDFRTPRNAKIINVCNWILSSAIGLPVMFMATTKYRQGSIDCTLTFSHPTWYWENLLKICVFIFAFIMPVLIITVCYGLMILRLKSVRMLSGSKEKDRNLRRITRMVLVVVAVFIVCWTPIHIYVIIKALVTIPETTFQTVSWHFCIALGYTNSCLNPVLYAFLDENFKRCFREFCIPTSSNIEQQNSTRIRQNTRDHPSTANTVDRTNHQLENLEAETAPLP

[2] = system: G93A mouse model of amyotrophic lateral sclerosis; conditions: 5 mg/kg/day i.p. starting at 30 days of age
[3] = system: inner mitochondrial membrane
mouse pancreatic islets = conditions: 3 mg/kg i.p. qd for 2 weeks
[4] = system: rats with unilateral ureteral obstruction; conditions: intraperitoneal 1 and 3 mg/kg, 1 day prior to obstruction and every day for 14 days
N2A neuronal cell line = conditions: <1 nM; N2A cells

SMILES: Cc1cc(O)cc(C)c1C[C@H](NC(=O)[C@H](N)CCCNC(=N)N)C(=O)N[C@@H](CCCCN)C(=O)N[C@@H](Cc1ccccc1)C(N)=O [D-Arginyl-2,6-dimethyl-L-tyrosyl-L-lysyl-L-phenylalaninamide] (H-[dR][Dmt]KF-NH2)
- intracellular reactive oxygen species [1]: significantly reduced
- mitochondrial potential [1]: increased
- tBHP-induced apoptosis [1]: prevented
- mu-opioid receptor agonist activity (mu-opioid receptor): does not have mu-opioid receptor agonist activity
- disease onset [2]: significant delay
- antioxidant activity [3]: showed antioxidant activity
- apoptosis in pancreatic islets caused by streptozotocin (mouse pancreatic islets): prevented
- insulin reduction in pancreatic islets caused by streptozotocin (mouse pancreatic islets): prevented
- interstitial fibrosis [4]: significantly decreased
- macrophage infiltration [4]: significantly decreased
- tubular damage [4]: significantly decreased
- intracellular reactive oxygen species (N2A neuronal cell line): significantly reduced
- mitochondrial potential (N2A neuronal cell line): increased
- tBHP-induced apoptosis (N2A neuronal cell line): prevented
